According to patent US20250019385A1, “SPIROCYCLIC ANNULATED 2-AMINO-3-CYANO THIOPHENES AND DERIVATIVES FOR THE TREATMENT OF CANCER” (Boehringer Ingelheim International GmbH, priority 2023, published 2025):
pIC50: −log10 of the molar value.

Experiments:
Ba/F3 cells KRAS G12D = assay: Ba/F3 proliferation assay (KRAS G12D); assay type: cell-based; details: Mus musculus, BaF3, 72 h, AlamarBlue viability
Summary of the method: (§1)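 Ba/F3 cells retrovirally transduced with KRAS G12 mutant, puromycin-selected, grown IL-3-independent; seeded in RPMI-1640 + 10% FCS without IL-3. Logarithmic compound dose series in duplicate, 72 h at 37° C., AlamarBlue fluorescence as % of DMSO control; IC50 from four-parameter non-linear regression.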

Ba/F3 cells KRAS G12C = assay: Ba/F3 proliferation assay (KRAS G12C); assay type: cell-based; details: Mus musculus, BaF3, 72 h, AlamarBlue viability
Summary of the method: as §1

Ba/F3 cells KRAS G12V = assay: Ba/F3 proliferation assay (KRAS G12V); assay type: cell-based; details: Mus musculus, BaF3, 72 h, AlamarBlue viability
Summary of the method: as §1

MKN1 cells = assay: MKN1 CTG proliferation assay (120 h) (gastric cancer, wt amplified); assay type: cell-based; details: Homo sapiens, MKN-1
Procedure: (§2) MKN1 cells (JCRB0252) are dispensed into black 384-well plates, flat and clear bottom (Greiner, PNr. 781091) at a density of 200 cells per well in 60 μl RPMI-1640 ATCC-Formulation (Gibco #A10491)+10% FCS (fetal calf serum, HyClone, SH30084.03). Cells are incubated overnight at 37° C. in a humidified tissue culture incubator at 5% CO2. Compounds (10 mM stock in DMSO) are added at logarithmic dose series using the ECHO acoustic liquid handler system (Beckman Coulter), normalizing for added DMSO and including DMSO controls. All compound treatments are performed in technical duplicates. For the TO time point measurement, untreated cells are analyzed at the time of compound addition. Plates are incubated for 120 h, and cell viability is measured using CellTiter-Glo luminescent cell viability reagent (Promega product code G7570). Viability (stated as percent of control) is defined as relative luminescence units RLU of each well divided by the RLU of cells in DMSO controls. IC50 values are determined from viability measurements by non-linear regression using a four-parameter model.
(§3) IC50 values of representative compounds according to the invention measured with these assays in the indicated cell lines are presented in Table 46.

LOVO cells = assay: LOVO CTG proliferation assay (120 h) (CRC, G13D); assay type: cell-based; details: Homo sapiens
Procedure: as §2, with “LOVO” for “MKN1”, “(ATCC No. CCL-229)” for “(JCRB0252)”, “1000” for “200”, “DMEM (Sigma D6429)+10%” for “RPMI-1640 ATCC-Formulation (Gibco #A10491)+10%”
as §3

[1] = Metabolic (microsomal) stability assay, human liver microsomes (HLM); assay type: in vitro ADME; details: 1 μM test compound, predicted clearance as percent of liver blood flow

pIC50 (Ba/F3 cells KRAS G12D)	pIC50 (Ba/F3 cells KRAS G12C)	pIC50 (Ba/F3 cells KRAS G12V)	pIC50 (MKN1 cells)	pIC50 (LOVO cells)	HLM QH [1]	Compound
7.85	8.70	9.00	8.30	8.40	<24%	C[C@H](Oc1nc(-c2onc3c2CCC[C@@]32CCCc3sc(N)c(C#N)c32)nc2c1n(C)c(=O)n2[C@@]12COC[C@@H]1C2)[C@@H]1CCCN1C [I-29]
7.54	7.96	8.30	7.41	8.15	25%	CCn1c(=O)n([C@@H]2CCCOC2)c2nc(-c3onc4c3CCC[C@@]43CCCc4sc(N)c(C#N)c43)nc(O[C@@H](C)[C@@H]3CCCN3C)c21 [I-30]
7.43	7.28	7.64	6.01	7.44	<24%	CO[C@H]1C[C@@H](n2c(=O)n(C)c3c(O[C@@H](C)[C@@H]4CCCN4C)nc(-c4onc5c4CCC[C@@]54CCCc5sc(N)c(C#N)c54)nc32)C1 [I-31]
7.24	7.64	7.89	6.37	7.60	88%	CC(C)n1c(=O)n([C@@H]2CCOC2)c2nc(-c3onc4c3CCC[C@@]43CCCc4sc(N)c(C#N)c43)nc(O[C@@H](C)[C@@H]3CCCN3C)c21 [I-32]
5.45	5.80	6.13	5.38	6.05	48%	CCn1c(=O)n([C@@H]2CCCOC2)c2nc(-c3onc4c3CCC[C@@]43CCCc4sc(N)c(C#N)c43)nc(OC[C@@]34CCCN3C[C@H](F)C4)c21 [I-33]
5.52	5.93	6.26	5.47	5.87	<24%	CCn1c(=O)n([C@@H]2CCCOC2)c2nc(-c3onc4c3CCC[C@@]43CCCc4sc(N)c(C#N)c43)nc(OCC34CCCN3CCC4)c21 [I-34]
6.39	6.75	6.98	6.01	6.92	53%	CCn1c(=O)n([C@@H]2CCCOC2)c2nc(-c3onc4c3CCC[C@@]43CCCc4sc(N)c(C#N)c43)nc(OCC3(CN4CCCC4)CC3)c21 [I-35]
7.02	7.51	7.74	6.62	8.05	37%	CCn1c(=O)n([C@@H]2CCCOC2)c2nc(-c3onc4c3CCC[C@@]43CCCc4sc(N)c(C#N)c43)nc(O[C@@H](C)C34CCCN3CCC4)c21 [I-36]
6.52	6.58	6.90	6.50	7.51	<24%	C[C@H](Oc1nc(-c2onc3c2CCC[C@@]32CCCc3sc(N)c(C#N)c32)nc2c1N(C)C(=O)CN2[C@@H]1CCOC1)[C@@H]1CCCN1C [I-37]
7.55	7.48	7.70	7.49	6.94	28%	C[C@H](Oc1nc(-c2onc3c2CCC[C@@]32CCCc3sc(N)c(C#N)c32)nc2c1ncn2[C@@H]1CCOC1)[C@@H]1CCCN1C [I-38]
7.62	7.62	7.92	7.54	7.72	57%	Cc1nc2c(O[C@@H](C)[C@@H]3CCCN3C)nc(-c3onc4c3CCC[C@@]43CCCc4sc(N)c(C#N)c43)nc2n1[C@@H]1CCOC1 [I-39]
7.55	7.64	7.85	6.66	7.37	37%	Cc1cc2c(O[C@@H](C)[C@@H]3CCCN3C)nc(-c3onc4c3CCC[C@@]43CCCc4sc(N)c(C#N)c43)nc2n1[C@@H]1CCOC1 [I-40]
6.97	6.91	7.11	6.16	6.46	<24%	Cc1cn([C@@H]2CCOC2)c2nc(-c3onc4c3CCC[C@@]43CCCc4sc(N)c(C#N)c43)nc(O[C@@H](C)[C@@H]3CCCN3C)c12 [I-41]
7.43	7.77	7.96	7.09	6.97	36%	Cc1nn([C@@H]2CCOC2)c2nc(-c3onc4c3CCC[C@@]43CCCc4sc(N)c(C#N)c43)nc(O[C@@H](C)[C@@H]3CCCN3C)c12 [I-42]
7.31	7.49	7.74	6.81	7.82	<24%	C[C@H](Oc1nc(-c2onc3c2CCC[C@@]32CCCc3sc(N)c(C#N)c32)nc2c1cnn2[C@@H]1CCOC1)[C@@H]1CCCN1C [I-43]
8.22	9.00	9.00	7.96	8.05	41%	C[C@H](Oc1nc(-c2onc3c2CCC[C@@]32CCCc3sc(N)c(C#N)c32)nc2c1n(C)c(=O)n2[C@@]12COC[C@@H]1C2)[C@@H]1CC[C@H](C)N1C [I-45]
7.82	8.70	9.00	8.05	7.68	34%	CO[C@@H]1C[C@@H]([C@H](C)Oc2nc(-c3onc4c3CCC[C@@]43CCCc4sc(N)c(C#N)c43)nc3c2n(C)c(=O)n3[C@@]23COC[C@@H]2C3)N(C)C1 [I-46]
8.40	8.70	9.00	8.15	8.40	31%	C[C@H](Oc1nc(-c2onc3c2CCC[C@@]32CCCc3sc(N)c(C#N)c32)nc2c1COC[C@]21CCOC1)[C@@H]1CCCN1C [I-54]
8.00	8.52	9.00	7.74	7.59	52%	C[C@H](Oc1nc(-c2onc3c2CCC[C@@]32CCCc3sc(N)c(C#N)c32)nc2c1CN(C1COC1)C[C@]21CCOC1)[C@@H]1CC[C@H](C)N1C [I-55]
7.89	8.40	8.70	7.82	7.37	<24%	C[C@H](Oc1nc(-c2onc3c2CCC[C@@]32CCCc3sc(N)c(C#N)c32)nc2c1CN(C1COC1)C[C@]21CCOC1)[C@@H]1CCCN1C [I-56]
7.96	8.52	8.70	9.00	7.41	61%	CO[C@H]1CCN(C)[C@@H]1[C@H](C)Oc1nc(-c2onc3c2CCC[C@@]32CCCc3sc(N)c(C#N)c32)nc2c1CN(C1COC1)C[C@]21CCOC1 [I-57]
7.66	8.40	8.70	7.68	7.08	52%	CO[C@@H]1C[C@@H]([C@H](C)Oc2nc(-c3onc4c3CCC[C@@]43CCCc4sc(N)c(C#N)c43)nc3c2CN(C2COC2)C[C@]32CCOC2)N(C)C1 [I-58]
8.05	8.40	8.70	8.22	8.70	80%	CO[C@H]1CCN(C)[C@@H]1[C@H](C)Oc1nc(-c2noc3c2CCC[C@@]32CCCc3sc(N)c(C#N)c32)nc2c1n(C)c(=O)n2[C@@H]1CCOC1 [II-1]
8.05	8.40	8.70	8.40	8.10	40%	C[C@H](Oc1nc(-c2noc3c2CCC[C@@]32CCCc3sc(N)c(C#N)c32)nc2c1n(C)c(=O)n2[C@@H]1CCOC1)[C@@H]1CCCN1C [II-2]
8.05	8.52	8.70	7.85	8.70	80%	CO[C@H]1CCN(C)[C@@H]1[C@H](C)Oc1nc(-c2noc3c2CCC[C@@]32CCCc3sc(N)c(C#N)c32)nc2c1n(C)c(=O)n2[C@@H]1CCCOC1 [II-3]
7.80	7.92	8.30	7.20	7.62	40%	C[C@H](Oc1nc(-c2noc3c2CCC[C@@]32CCCc3sc(N)c(C#N)c32)nc2c1cnn2[C@@H]1CCOC1)[C@@H]1CCCN1C [II-4]
